Laboratory results from publication PMC10500703 (Journal of medicinal chemistry, 2021).

Tests used:
Type in all cases: cell-based, Mycobacterium tuberculosis
Mtb ∆cyd = system: Mtb ∆cyd
[1] = system: Mtb InhA-OE (H37Rv-LP:fabG1/inhA-c-15t)
Mtb EthA C253R = system: Mtb EthA C253R

Compound | MIC (Mtb ∆cyd) | MIC [1] | MIC (Mtb EthA C253R)
3-(1,3-bis(4-chlorophenyl)-1H-pyrazol-5-yl)-N-(methylsulfonyl)propanamide [Compound 8] | 4 µM | 0.24 µM | –
CCc1cc(C(N)=S)ccn1 [ETH, Ethionamide] | – | – | >125 µM
